Measurements from ChEMBL document CHEMBL1126853, “A series of penicillin-derived C2-symmetric inhibitors of HIV-1 proteinase: structural and modeling studies” (J Med Chem, 1993).

Molecular target: Human immunodeficiency virus type 1 protease (Human immunodeficiency virus 1, UniProt Q72874)
Experiment: Inhibitory activity against HIV-1 Protease

Row | SMILES | IC50 [nM]
1 | CC1(C)S[C@H]([C@H](NC(=O)Cc2ccccc2)C(=O)NCc2ccccc2)NC1C(=O)NCCCNC(=O)[C@@H]1N[C@@H]([C@H](NC(=O)Cc2ccccc2)C(=O)NCc2ccccc2)SC1(C)C (some centres not stated) | 540
2 | CCNC(=O)[C@@H](NC(=O)c1ccccc1-c1ccccc1)[C@@H]1NC(C(=O)NCCNC(=O)[C@@H]2N[C@@H]([C@H](NC(=O)c3ccccc3-c3ccccc3)C(=O)NCC)SC2(C)C)C(C)(C)S1 (some centres not stated) | 9.9
3 | CC1(C)S[C@H]([C@H](NC(=O)Cc2ccccc2)C(=O)NCc2ccccc2)NC1C(=O)NCC(O)CNC(=O)[C@@H]1N[C@@H]([C@H](NC(=O)Cc2ccccc2)C(=O)NCc2ccccc2)SC1(C)C (some centres not stated) | 5
4 | CC1(C)S[C@H]([C@H](NC(=O)Cc2ccccc2)C(=O)NCC(F)(F)F)NC1C(=O)NCCNC(=O)[C@@H]1N[C@@H]([C@H](NC(=O)Cc2ccccc2)C(=O)NCC(F)(F)F)SC1(C)C (some centres not stated) | 4.4
5 | CCNC(=O)[C@@H](NC(=O)c1ccccc1)[C@@H]1NC(C(=O)NCCNC(=O)[C@@H]2N[C@@H]([C@H](NC(=O)c3ccccc3)C(=O)NCC)SC2(C)C)C(C)(C)S1 (some centres not stated) | 390
6 | CCNC(=O)[C@@H](NC(=O)Cc1ccccc1)[C@@H]1NC(C(=O)NCCNC(=O)[C@@H]2N[C@@H]([C@H](NC(=O)Cc3ccccc3)C(=O)NCC)SC2(C)C)C(C)(C)S1 (some centres not stated) | 3
7 | CCNC(=O)[C@@H](NC(=O)c1c(-c2ccccc2)noc1C)[C@@H]1NC(C(=O)NCCNC(=O)[C@@H]2N[C@@H]([C@H](NC(=O)c3c(-c4ccccc4)noc3C)C(=O)NCC)SC2(C)C)C(C)(C)S1 (some centres not stated) | 5.4
